Values after ≈ are worked out from the molar mass of the structure shown. Values joined by “and” are separate entries in the source; they are usually repeats but may differ in a detail not shown here. Equal values may be shown once. Read-outs that look alike come from different tables or passages of the source.
How the values were obtained:
N. gonorrhoeae = N. gonorrhoeae MIC; assay type: cell-based; conditions: Neisseria gonorrhoeae, strain #167
[1] = system: Francisella tularensis strains; assay: microbe, parasite or virus in culture; assay type: cell-based
Bacillus subtilis = Bacillus subtilis MIC / MBC; assay type: cell-based; conditions: for MBC: Bacillus subtilis NRRL: B-571, minimum bactericidal concentration; for MIC: Bacillus subtilis, Bacillus subtilis (Ehrenberg 1835) Cohn 1872 NRRL: B-571, read-out: MIC
Bacillus thuringiensis = assay type: cell-based; conditions: Bacillus thuringiensis Berliner ATCC: 10792; for MIC: Bacillus thuringiensis, read-out: MIC
[2] = system: Francisella tularensis subsp. Holarctica Strain LVSR NR-597; assay: microbe, parasite or virus in culture; assay type: cell-based
Candida glabrata = Candida glabrata MIC / MFC; assay type: cell-based; conditions: Nakaseomyces glabratus, read-out: MIC
NoSpin HepaRG cells = assay: HepaRG cytotoxicity, MTT assay EC50; assay type: cell-based, human; conditions: Homo sapiens, HepaRG; cytotoxicity EC50, Table 9
Experimental: Additionally, the antimicrobial compounds were analyzed for cytotoxicity. […] We utilized the standard MTT assay (Promega CellTiter 96) and GraphPad Prism 7 software to determine EC50 values for each analogue. Briefly, 20,000 HepG2 cells in 200 μl of the ATCC recommended media were seeded in each well of a 96-well plate with a moisture barrier created in the outermost wells. The cells were allowed to attach overnight at 37° C., and then observed under phase contrast microscopy for proper morphological characteristics. […] Once incubations were complete, the spectrophotometric absorbance of the samples was measured at a wavelength of 595 nm. […] For the HepaRG assay, NoSpin HepaRG™ cells (Lonza, cat #NSHPRG) were thawed and plated with 20,000 cells per well. They were allowed to attach for 4 h (optimal DME profile per Lonza's testing) before dosing following the identical protocol as above.

[3] = Toxicity in mice, body weight over 7 days; assay type: in vivo, Balb/c mice; conditions: for Animal body weight (kg) Day 0 / Animal body weight (kg) Day 1 / Animal body weight (kg) Day 2 / Animal body weight (kg) Day 3 / Animal body weight (kg) Day 4 / Animal body weight (kg) Day 5 / Animal body weight (kg) Day 6 / Animal body weight (kg) Day 7: mice, IP; for Animal body weight (kg) Day 0: Day 0, individual animals; for Animal body weight (kg) Day 1: Day 1, individual animals; for Animal body weight (kg) Day 2: Day 2, individual animals; for Animal body weight (kg) Day 3: Day 3, individual animals; for Animal body weight (kg) Day 4: Day 4, individual animals; for Animal body weight (kg) Day 5: Day 5, individual animals; for Animal body weight (kg) Day 6: Day 6, individual animals; for Animal body weight (kg) Day 7: Day 7, individual animals
From the text: The vehicle is 40% PEG300 solution in 0.9% NaCl. […] Thus, the compounds are useful for in vivo antimicrobial administration.

Trichophyton rubrum = assay: MIC against Trichophyton rubrum; assay type: cell-based; conditions: Trichophyton rubrum Castellani Sabouraud ATCC: 28188; read-out: MIC
[4] = system: Burkholderia thailandensis Brett et al ATCC: 700388; assay: microbe, parasite or virus in culture; assay type: cell-based
C. albicans = assay: Candida albicans MIC / MFC; assay type: cell-based
[5] = read-out: F. tularensis BSL-3 MIC, Strain 100
[6] = read-out: F. tularensis BSL-3 MIC, strain HN-63
[7] = read-out: F. tularensis BSL-3 MIC, strain LVS
[8] = read-out: F. tularensis BSL-3 MIC, strain MA00-2987
[9] = read-out: F. tularensis BSL-3 MIC, strain MO #1
[10] = read-out: F. tularensis BSL-3 MIC, strain MO #2
[11] = read-out: F. tularensis BSL-3 MIC, strain MO #3
[12] = read-out: F. tularensis BSL-3 MIC, strain OR-96
[13] = read-out: F. tularensis BSL-3 MIC, strain SCHU S4
[14] = read-out: F. tularensis BSL-3 MIC, strain WY-96
[15] = read-out: MAX, highest MIC over the Francisella tularensis strains
[16] = read-out: MIN, lowest MIC over the Francisella tularensis strains
[17] = Candida glabrata #584 (Table 2)

## FC(F)(F)c1ccccc1Sc1c[nH]c2ccc(Br)cc12 [Compound 174AV, 5-bromo-3-((2-(trifluoromethyl)phenyl)thio)-1H-indole]
N. gonorrhoeae
  MIC: 3.12 µg/mL (≈ 8.4 µM)
[1]
  MIC50: 4 µg/mL (≈ 10.7 µM)
[1]; [5]
  MIC: 6 µg/mL (≈ 16.1 µM)
[1]; [6]
  MIC: 4 µg/mL (≈ 10.7 µM)
[1]; [7]
  MIC: 4 µg/mL (≈ 10.7 µM)
[1]; [8]
  MIC: 3.67 µg/mL (≈ 9.86 µM)
[1]; [9]
  MIC: 3 µg/mL (≈ 8.06 µM)
[1]; [10]
  MIC: 2 µg/mL (≈ 5.37 µM)
[1]; [11]
  MIC: 4 µg/mL (≈ 10.7 µM)
[1]; [12]
  MIC: 4 µg/mL (≈ 10.7 µM)
[1]; [13]
  MIC: 4 µg/mL (≈ 10.7 µM)
[1]; [14]
  MIC: 4 µg/mL (≈ 10.7 µM)
[1]; [15]
  MIC: 6 µg/mL (≈ 16.1 µM)
[1]; [16]
  MIC: 2 µg/mL (≈ 5.37 µM)
Bacillus subtilis
  MBC: 2 µg/mL (≈ 5.37 µM)
  MIC: 1 µg/mL (≈ 2.69 µM)
Bacillus thuringiensis
  MBC: 1 µg/mL (≈ 2.69 µM)
  MIC: 1 µg/mL (≈ 2.69 µM)
[2]
  MIC: 1 µg/mL (≈ 2.69 µM)
Candida glabrata; [17]
  MIC: 25 µg/mL (≈ 67.2 µM)

## Cc1[nH]c2ccc(Br)cc2c1Sc1ccccc1Br [Compound 174AZ, 5-bromo-3-((2-bromophenyl)thio)-2-methyl-1H-indole]
N. gonorrhoeae
  MIC: 3.12 µg/mL (≈ 7.87 µM)
[1]
  MIC50: 2 µg/mL (≈ 5.04 µM)
[1]; [5]
  MIC: 4 µg/mL (≈ 10.1 µM)
[1]; [6]
  MIC: 2 µg/mL (≈ 5.04 µM)
[1]; [7]
  MIC: 2.67 µg/mL (≈ 6.72 µM)
[1]; [8]
  MIC: 2 µg/mL (≈ 5.04 µM)
[1]; [9]
  MIC: 1.33 µg/mL (≈ 3.35 µM)
[1]; [10]
  MIC: 1 µg/mL (≈ 2.52 µM)
[1]; [11]
  MIC: 2 µg/mL (≈ 5.04 µM)
[1]; [12]
  MIC: 2 µg/mL (≈ 5.04 µM)
[1]; [13]
  MIC: 4 µg/mL (≈ 10.1 µM)
[1]; [14]
  MIC: 2 µg/mL (≈ 5.04 µM)
[1]; [15]
  MIC: 4 µg/mL (≈ 10.1 µM)
[1]; [16]
  MIC: 1 µg/mL (≈ 2.52 µM)
NoSpin HepaRG cells
  EC50: 25.8 µg/mL (≈ 65 µM)
[3]; 6-week-old Balb/c mice, body weight over 7 days, vehicle 40% PEG300 in 0.9% NaCl
  toxicity in mice by body weight: did not have significant toxicity
[3]; 0.1 mg/kg, 0.1 mg/kg
  Animal body weight (kg) Day 0: 0.023 kg (2×) and 0.025 kg
  Animal body weight (kg) Day 1: 0.022 kg and 0.024 kg and 0.023 kg
  Animal body weight (kg) Day 2: 0.022 kg and 0.025 kg and 0.023 kg
  Animal body weight (kg) Day 3: 0.022 kg and 0.025 kg and 0.023 kg
  Animal body weight (kg) Day 4: 0.023 kg (2×) and 0.025 kg
  Animal body weight (kg) Day 5: 0.022 kg and 0.025 kg and 0.023 kg
  Animal body weight (kg) Day 6: 0.022 kg and 0.025 kg and 0.023 kg
  Animal body weight (kg) Day 7: 0.022 kg (2×) and 0.025 kg
[3]; 1 mg/kg, 1 mg/kg
  Animal body weight (kg) Day 0: 0.024 kg (2×) and 0.025 kg
  Animal body weight (kg) Day 1: 0.023 kg and 0.024 kg (2×)
  Animal body weight (kg) Day 3: 0.025 kg and 0.024 kg (2×)
  Animal body weight (kg) Day 4: 0.025 kg (2×) and 0.024 kg
  Animal body weight (kg) Day 5: 0.025 kg and 0.023 kg and 0.024 kg
  Animal body weight (kg) Day 6: 0.025 kg and 0.024 kg (2×)
  Animal body weight (kg) Day 7: 0.025 kg and 0.023 kg and 0.024 kg
[3]; 1 mg/kg
  Animal body weight (kg) Day 2: 0.024 kg
[3]; 10 mg/kg, 10 mg/kg
  Animal body weight (kg) Day 0: 0.023 kg (2×) and 0.024 kg
  Animal body weight (kg) Day 1: 0.022 kg (2×) and 0.023 kg
  Animal body weight (kg) Day 2: 0.022 kg and 0.023 kg (2×)
  Animal body weight (kg) Day 3: 0.022 kg (2×) and 0.023 kg
  Animal body weight (kg) Day 6: 0.022 kg (2×) and 0.023 kg
  Animal body weight (kg) Day 7: 0.023 kg (2×) and 0.022 kg
[3]; 10 mg/kg
  Animal body weight (kg) Day 4: 0.023 kg
  Animal body weight (kg) Day 5: 0.023 kg
Bacillus subtilis
  MBC: 4 µg/mL (≈ 10.1 µM)
  MIC: 1 µg/mL (≈ 2.52 µM)
Bacillus thuringiensis
  MBC: 8 µg/mL (≈ 20.1 µM)
  MIC: 1 µg/mL (≈ 2.52 µM)
[2]
  MIC: 1 µg/mL (≈ 2.52 µM)
Candida glabrata; [17]
  MIC: > 50 µg/mL

## Clc1ccc2[nH]cc(Sc3ccc(Br)cc3)c2c1 [Compound 174C, 3-((4-bromophenyl)thio)-5-chloro-1H-indole]
NoSpin HepaRG cells
  EC50: 25.4 µg/mL (≈ 75 µM)
Bacillus subtilis
  MBC: 3.13 µg/mL (≈ 9.24 µM)
  MIC: 1.56 µg/mL (≈ 4.61 µM)
Bacillus thuringiensis
  MBC: 1.56 µg/mL (≈ 4.61 µM)
  MIC: 1.56 µg/mL (≈ 4.61 µM)
[2]
  MIC: 1.56 µg/mL (≈ 4.61 µM)
Trichophyton rubrum
  MIC: 2.11 µg/mL (≈ 6.23 µM)
Candida glabrata; [17]
  MIC: 3.13 µg/mL (≈ 9.24 µM)
[4]
  MIC: > 50 µg/mL

## Brc1ccc(Sc2c[nH]c3cccc(Br)c23)cc1 [Compound 174D, 4-bromo-3-((4-bromophenyl)thio)-1H-indole]
NoSpin HepaRG cells
  EC50: 23.2 µg/mL (≈ 60.6 µM)
Bacillus subtilis
  MIC: 1.56 µg/mL (≈ 4.07 µM)
Bacillus thuringiensis
  MBC: 3.13 µg/mL (≈ 8.17 µM)
  MIC: 1.56 µg/mL (≈ 4.07 µM)
[2]
  MIC: 1.56 µg/mL (≈ 4.07 µM)
C. albicans; C. albicans strain #761, read-out: MIC
  MIC: > 50 µg/mL
C. albicans; C. albicans strain #762, read-out: MFC
  MFC: 12.5 µg/mL (≈ 32.6 µM)
Trichophyton rubrum
  MIC: 2.38 µg/mL (≈ 6.21 µM)
Candida glabrata; C. glabrata strain #325
  MIC: > 50 µg/mL
[4]
  MIC: > 50 µg/mL
